Assay results: paper PMC5914052, “ATR kinase inhibitors NVP-BEZ235 and AZD6738 effectively penetrate the brain after systemic administration” (Radiation Oncology (London, England), 2018)
Read-outs that look alike come from different tables or passages of the source.

Experiments:
[1] = Pharmacokinetics after i.p. delivery: blood and brain concentration by HPLC/MS; type: in vivo, CD-1 mice; conditions: 25 mg/Kg i.p.; for concentration at 1 h / concentration at 2 h / concentration at 6 h / concentration at 8 h: mouse, ip, tumor-free CD-1 mice
Method: Tumor-free 8-weeks old CD-1 mice (Envigo, http://www.envigo.com) were inoculated i.p. with 25 mg/Kg body weight of NVP-BEZ235 or AZD6738. 1, 2, 6 and 8 h later, blood was collected by retro-orbital bleeding after which the mice were euthanized by CO2 asphyxiation and the brains explanted. Blood and brain samples were then extracted and NVP-BEZ235 and AZD6738 concentrations determined by High Performance Liquid Chromatography (HPLC)/mass spectrometry (MS) as described.
The biodistribution and pharmacokinetics of these ATRi, in particular the concentration reached in the brain after i.p. delivery, is crucial to determine optimal tumor radio-sensitization conditions in vivo. The presence of genuine NVP-BEZ235 and AZD6738 in the mouse blood and brain after i.p. delivery was investigated using HPLC/MS. Figure 1a and 1c show the isotopic patterns of NVP-BEZ235 and AZD6738 respectively, as determined by MS. A logarithmic relationship was found between abundance of NVP-BEZ235 (Fig. 1b) and AZD6738 (Fig. 1d) (expressed in arbitrary units) and their concentrations. For both NVP-BEZ235 and AZD6738, the Limit of Quantitation (LoQ) was 10 × 10^− 9 M. Tumor-free mice were inoculated i.p. with 25 mg/Kg body weight of NVP-BEZ235 (Fig. 1f) or AZD6738 (Fig. 1i). Mouse ID numbers are indicated at the top of Fig. 1f and I for the sake of reference. Blood samples were then withdrawn retro-orbitally after 1, 2, 6 and 8 h (Fig. 1g and k). Immediately after blood sampling, the animals were euthanized and their brains removed (Fig. 1e and h). All samples were homogenized and extracted concomitantly and its ATRi content determined by HPLC/MS. […] This value returned close to the LoQ (12 × 10^− 9 M) 8 h after the i.p. delivery (Fig. 1e).
Fig. 1 Pharmacokinetics of ATRi studied by HPLC/MS in positive polarity. a Isotopic pattern of NVP-BEZ235. b Relationship between HPLC/MS-determined abundance and concentration of NVP-BEZ235. The limit of quantitation (LoQ) was 10 × 10^− 9 M. c Isotopic pattern of AZD6738. d Relationship between HPLC/MS-determined abundance and concentration of AZD6738. The limit of quantitation (LoQ) was 10 × 10^− 9 M. e-g BBB crossing by NVP-BEZ235. Tumor-free mice were inoculated i.p. with 25 mg/Kg body weight of NVP-BEZ235 (f). At the indicated times [T (h)] blood was withdrawn retroorbitally for plasma isolation and analysis (g). Mice were then euthanized and the brains explanted (e). All blood and brain samples were then resuspended in water/methanol, homogenized, centrifuged and the supernatant determined for its NVP-BEZ235 concentration using HPLC/MS as described under Methods and Materials. Concentration values (× 10^− 9 M) are shown at the top of (e) and (g) and illustrated at half-panel by the area of a colored triangle. S.D. of values determined by this procedure is on average ± 31%. Mouse ID numbers are shown at the top of F for the sake of reference. h-k As in E-G but with AZD6738 TEXT PRINTED IN THE PICTURE: (e) NVP-BEZ235: [NVP-BEZ235] x 10^-9 M: 36 (T (h): 1; Brain); [NVP-BEZ235] x 10^-9 M: 111 (T (h): 2; Brain); [NVP-BEZ235] x 10^-9 M: 44 (T (h): 6; Brain); [NVP-BEZ235] x 10^-9 M: 12 (T (h): 8; Brain) | (g) NVP-BEZ235: [NVP-BEZ235] x 10^-9 M: 146 (T (h): 1; Blood); [NVP-BEZ235] x 10^-9 M: 32 (T (h): 2; Blood); [NVP-BEZ235] x 10^-9 M: 28 (T (h): 6; Blood); [NVP-BEZ235] x 10^-9 M: 12 (T (h): 8; Blood) | (h) AZD6738: [AZD6738] x 10^-9 M: 480 (T (h): 1; Brain); [AZD6738] x 10^-9 M: 380 (T (h): 2; Brain); [AZD6738] x 10^-9 M: 80 (T (h): 6; Brain); [AZD6738] x 10^-9 M: 9 (T (h): 8; Brain) | (k) AZD6738: [AZD6738] x 10^-9 M: 760 (T (h): 1; Blood); [AZD6738] x 10^-9 M: 1480 (T (h): 2; Blood); [AZD6738] x 10^-9 M: 140 (T (h): 6; Blood); [AZD6738] x 10^-9 M: 40 (T (h): 8; Blood)

[2] = Brain histopathology (H/E) of tumor-bearing mice treated with ATRi+IR; conditions: H/E staining at d88
[3] = tested on: COMI GIC-driven orthotopic GB; conditions: for Effect on survival of irradiated animals: 25 mg/Kg i.p. + 0.5 Gy IR, three consecutive days, versus vehicle+IR; for Median animal survival: 25 mg/Kg i.p. followed 4 h later by 0.5 Gy IR to the head, at d22, d23 and d24, vehicle (DMSO)+IR 99 days
ATR = conditions: in cells, cited from earlier work
PI3K/mTOR pathway = conditions: cited from earlier work; for IC50: in cells
[4] = tested on: orthotopic xenograft models of GB; set-up: method as in PMID 27542970; conditions: nude rats and NOD/SCID mice; cited from earlier work
[5] = Tolerability of NVP-BEZ235 doses above 25 mg/Kg in animals; type: in vivo; conditions: our animals, data not shown
Source text: Gil del Alcazar and coworkers have described radiosensitization of orthotopic GB by NVP-BEZ235 using the established glioma cell line U87 [15]. The U87-driven tumors yet poorly mimic the infiltrative and neovascularization growth properties of clinical GB [17]. Further, the U87 cell line was recently reported to represent a mix-up with another cell line. In order to investigate the radiosensitization properties of NVP-BEZ235 towards orthotopic GB driven by primary GIC that more faithfully mimic the clinical tumors growth, [17] we preliminarily investigated the pharmacokinetics of NVP-BEZ235 using HPLC/MS. […] The early termination of recent NVP-BEZ235 clinical trials due to elevated toxicity may confirm that safety dosing of NVP-BEZ235 should be thoroughly investigated prior to use. […] (Fig. 1e). […] NVP-BEZ235 can diffuse to brain tissues at pharmacologically active levels after systemic administration, albeit the presence of the efflux ABC-transporters (in particular ABCG2) at the BBB may in part restrict its brain penetration. In a preliminary tumor radiosensitization study, we then developed primary adult COMI tumors in NOD SCID mice, whose immunodeficient phenotype is required for reproducible engraftment in virtually 100% of mice (Fig. 2a). […]

[6] = mouse, in vivo
[7] = brain, read-out: Brain concentration
[8] = plasma, read-out: Blood concentration

Structure (SMILES) | concentration at 1 h [1, 7] [nM] | concentration at 2 h [1, 7] [nM] | concentration at 6 h [1, 7] [nM] | concentration at 8 h [1, 7] [nM] | concentration at 1 h [1, 8] [nM] | concentration at 2 h [1, 8] [nM] | concentration at 6 h [1, 8] [nM] | concentration at 8 h [1, 8] [nM] | Effect on survival of irradiated animals [3] | Median animal survival [3] [days] | other results
C[C@@H]1COCCN1c1cc(C2([S@](C)(=N)=O)CC2)nc(-c2cc[nH]c3nccc2-3)n1 [AZD6738] | 480 | 380 | 80 | 9 | 760 | 1480 | […] | […] | could not observe any survival improvement | 101 | Brain concentrations achievable after i.p. administration relative to NVP-BEZ235 ([1]; AZD6738 versus NVP-BEZ235): […]; Brain histology variation versus DMSO+IR [2]: No significant histology variations; IC50 (ATR; read-out: IC50 for ATR kinase inhibition in cells): […]; Inhibition of related kinases in the PI3K/mTOR pathway (PI3K/mTOR pathway): does not inhibit significantly
Cn1c(=O)n(-c2ccc(C(C)(C)C#N)cc2)c2c3cc(-c4cnc5ccccc5c4)ccc3ncc21 [NVP-BEZ235] | 36 | 111 | 44 | 12 | 146 | 32 | 28 | 12 | no elongation of median survival | 86 | Decrease of blood concentration from 1 h to 2 h ([1]; 1 h versus 2 h): > 4 fold; Side effects of doses higher than 25 mg/Kg [4]: severe side effects; Survival benefit or inhibition of tumour growth [4]: no survival benefit or inhibition of tumour growth; Toxicity of doses higher than 25 mg/Kg i.p. [5]: significant toxicity; IC50 (ATR; read-out: IC50 for ATR inhibition in cells): 21 nM; IC50 (PI3K/mTOR pathway; S473-Akt, read-out: Concentration giving 50% reduction of S473-Akt levels in cells): 8 nM; IC50 (PI3K/mTOR pathway; T308-Akt, read-out: Concentration giving 50% reduction of T308-Akt levels in cells): 30 nM; Brain histology variation versus DMSO+IR [6]: No significant histology variations
